# Key:
# [1] = tested on: RASGRP3, CRAF, MEK, ERK phosphorylation and cyclin D1 expression; experiment: Western blot of Gαq downstream signaling in melan-a cells; assay type: cell-based, mouse
# Experimental: The last sample for each cell line was also treated with TPA for 24 hours showing rescue of the pathway.
# Samples were treated with 500 nM YM for 0, 2, 4, 8, and 24 hours with the last lane being treatment plus TPA add back.
# Immunoblotting. Lysates were harvested using SDS lysis buffer (50 mM Tris-HCL, pH 6.8, 1 mM EDTA, 150 mM NaCl, 1% SDS, […]) supplemented with fresh proteinase and phosphatase inhibitors (PhosSTOP, Roche, Basel, Switzerland; Complete EDTA-Free, Roche, Basel, Switzerland) and 1% PMSF (Sigma-Aldrich, St. Louis, Mo.). Lysates were incubated on ice for 30 minutes, sonicated for 15 minutes, and then centrifuged at max speed for 10 minutes at 4° C. Protein levels were quantified using BCA protein assay (Thermo Scientific, Waltham, Mass.). NuPAGE LDS Sample Buffer (4×) was added to a final concentration of 1×. Samples were run on NuPAGE Novex 4-12% Bis-Tris protein gels (Life Technologies, Carlsbad, Calif.), transferred electrophoretically to 0.45 μm PVDF membranes (Immobilon, EMD Millipore, Burlington, Mass.), and then blocked with StartingBlock blocking buffer (Thermo Scientific, Waltham, Mass.) for 1 hour at room temperature. Primary antibodies were incubated at 4° C. overnight in StartingBlock buffer at 1:1,000 dilution, unless noted otherwise. Primary Antibodies used in the experiments described herein are provided below:
# The effect of YM on Gαq downstream signaling was assayed, including RASGRP3 phosphorylation by PKC, phosphorylation of CRAF, MEK, and ERK (downstream of RAS) and cyclin D1 expression which integrates signaling to promote cell cycle progression.
# [2] = tested on: human UVM cell lines that harbored the GNAQ^Q209L/P mutation; experiment: IP1 accumulation assay in UVM cells; assay type: cell-based; conditions: YM treatment at 24 hours
# Experimental: Cells were treated with increasing concentrations of YM for 3 hours (top) and 24 hours (bottom). Error bars, s.e.m from three biological replicates, each with three technical replicates.
# IP1 Accumulation Assay. IP1 concentrations in GNAQ-transfected HEK293T cells, GNAQ-expressing melan-a cells and uveal melanoma cells was measured using a competitive homogenous time resolved fluorescence (HTRF) assay (CisBio, Bedford, Mass.). Briefly, 9,000 transiently transfected-HEK293T cells, 5,000 melan-a cells and 5,000 uveal melanoma cells were seeded in low-volume 384-well plates in 7 μL media for 24 hours prior YM-254890 treatment. […] Following incubation, cells were lysed by adding 3 μL/well of d2-labeled IP1 analogue as the fluorescence acceptor and the Terbium cryptate-labeled anti-IP1 mAb as the fluorescence donor, diluted in the kit-supplied lysis buffer. The plates were incubated overnight at RT and time-resolved fluorescence signals were read using the BioTek Synergy NEO plate reader (BioTek Instruments, Winooski, Vt.) at 620 nm and 655 nm. Results were calculated as a 665 nm/620 nm signal ratio, and IP1 concentrations were interpolated from a standard curve prepared using the supplied IP1 calibrator. […] Dose-response curves and bar graphs were analyzed using GraphPad Prism 7.0 software. […]
# [3] = tested on: A375 cells (BRAF^V600E cutaneous melanoma); experiment: Cell proliferation dose response, CellTiter-glo 2.0; assay type: cell-based, human; conditions: 5 days
# Experimental: (§1) Data are expressed as the percentage RLU relative to that observed with vehicle. Error bars, s.e.m. from triplicate samples.
# (§2) Cell Culture and in vitro analysis. Mutation dependent melan-a cells were generated by transducing cells with cDNAs in MSCV-PURO (retrovirus) and then selecting cells with puromycin (1 μg/ml) for two days. TPA (Sigma-Aldrich, St. Louis, Mo.) was then withdrawn from cultures. Cells with activating mutations (CYSLTR2^L129Q, GNAQ^G48V/R183Q/Q209L, KRAS^G12V, and BRAF^V600E) continued to proliferate over several passages (>2 weeks) and were then validated with qRT-PCR and immunoblots. Vector and WT controls were unable to maintain proliferation after a couple passages upon TPA withdrawal. All cells were cultured in media containing 10% FBS, L-glutamine ([…]), penicillin (100 U/ml), streptomycin (100 μg/ml). Melan-a cells provided by D. Bennett, St. George's Hospital, University of London (Johnson C P, et al., PLoS One. 12(6):1-17 (2017)), were cultured in RPMI supplemented with 200 nM TPA unless otherwise noted. HEK293T (from ATCC, Manassas, Va.) cells were cultured in DMEM-Q and UVM cells were cultured in RPMI. All cells tested negative for mycoplasma. Cell growth assays and YM dose response curves were assayed using CellTiter-glo 2.0 (Promega, Madison, Wis.) at given time points or after five days of incubation with YM and readout on a Glomax Luminometer (Promega, Madison, Wis.). IC50 values were calculated using Prism 7.0 software. Growth assays were compared to day 1 readings and dose response curves were compared to vehicle. Data shown is representative of at least three independent experiments with at least three technical replicates. Dose-response curves and growth assays were analyzed using GraphPad Prism 7.0 software.
# A549 cells (KRAS^G12S) = experiment: as above; assay type: cell-based, human; conditions: 5 days
# Experimental: as §1, §2
# Mel202 cells = experiment: as above; assay type: cell-based, human; conditions: 5 days, approximate
# Experimental: as §1, §2
# Mel270 cells = experiment: as above; assay type: cell-based, human; conditions: 5 days, approximate
# Experimental: as §1, §2
# Mel285 cells = experiment: as above; assay type: cell-based, human; conditions: 5 days, UVM line lacking GNAQ/11 mutations
# Experimental: as §1, §2
# Mel290 cells = experiment: as above; assay type: cell-based, human; conditions: 5 days, UVM line lacking GNAQ/11 mutations
# Experimental: as §1, §2
# OMM1.3 cells = experiment: as above; assay type: cell-based, human; conditions: 5 days, approximate
# Experimental: as §1, §2
# [4] = tested on: SK-MEL-2 cells (NRAS^Q61R); experiment: as above; assay type: cell-based, human; conditions: 5 days
# Experimental: as §1, §2
substance,measurement,setting,value
YM-254890,downstream signaling targets with TPA supplementation,"[1]; 24 hours after YM treatment, plus TPA",completely rescued
same,inhibition of MAPK signaling,"[1]; BRAF^V600E-expressing melan-a cells, 500 nM YM",ineffective
same,"inhibition of downstream signaling targets (p-RASGRP3, p-CRAF, p-MEK, p-ERK, cyclin D1)","[1]; CYSLTR2^L129Q, GNAQ^G48V, GNAQ^R183Q and GNAQ^Q209L-expressing melan-a cells, 500 nM YM, 0-24 hours",inhibited
same,kinetics of inhibition of downstream signaling compared to CYSLTR2^L129Q and GNAQ^G48V-expressing cells,"[1]; GNAQ^Q209L-expressing melan-a cells, 500 nM YM",slower kinetics
same,kinetics of inhibition of downstream signaling compared to CYSLTR2^L129Q and GNAQ^G48V-expressing cells,"[1]; GNAQ^R183Q-expressing melan-a cells, 500 nM YM",slower kinetics
same,inhibition of MAPK signaling,"[1]; KRAS^G12V-expressing melan-a cells, 500 nM YM",ineffective
same,inhibition of IP1 accumulation,[2],inhibited
same,sensitivity of proliferation to YM,[3],resistant
same,sensitivity of proliferation to YM,A549 cells (KRAS^G12S),resistant
same,IC50,Mel202 cells,~100 nM
same,IC50,Mel270 cells,~100 nM
same,sensitivity of proliferation to YM,Mel285 cells,resistant
same,sensitivity of proliferation to YM,Mel290 cells,resistant
same,IC50,OMM1.3 cells,~100 nM
same,sensitivity of proliferation to YM,[4],resistant

# From patent US20210403864A1, “METHODS AND COMPOSITIONS FOR TREATING ACTIVATED G-ALPHA Q MUTANT CANCERS OR MELANOCYTIC MALIGNANCIES” (Memorial Sloan Kettering Cancer Center, priority 2018, published 2021)
